Measured values from US20230113802A1, “COMPOSITION AND METHOD TO PREPARE LONG-ACTING INJECTABLE SUSPENSION CONTAINING MULTIPLE CANCER DRUGS” (University of Washington, priority 2020, published 2023).
“And” between values parts separate entries of the source, which are not always exact repeats. Equal entries are not always repeated.

Tests used:
[1] = Estimating the maximum dissociated fraction of G and T in vivo (Eq. 1, Eq. 2); set-up: species or system BALB/c mice; settings: for maximum dissociated fraction (fdiss. max), Eq. 1: from plasma AUCs of DcNP and CrEL
From the text: To estimate a maximum dissociated fraction (fdiss. max) of GT from DcNPs in vivo, a non-compartmental approach based on the plasma AUCs of equi-molar injections of DcNP and CrEL formulations was first utilized: […]
In Eq. 1, it is assumed that systemic clearance of G or T administered as DcNPs only occurs after drug dissociates from the particles, and dissociated drug has the same clearance pathways as the free drug control (CrEL). This non compartmental approach also assumes that drug clearance occurs solely in the central compartment. For the two drugs of interest, T is mainly metabolized in the liver by CYP3A4 and CYP2C8 but G is metabolized by ubiquitous cytidine deaminase (CDA). To understand the impact of the ubiquitous metabolism of G on its pharmacokinetic profile, the plasma concentration of the primary metabolite of G, dFdU, was used as a biomarker for dissociated drug. […] The equation below then provides an estimate of the fraction of the G dose metabolized to dFdU. If the calculated fraction metabolized (fdiss.G→dFdU) from Eq. 2 equals the fdiss. max from Eq. 1, it can be surmised that once G is released from DcNPs at all locations in the body it exchanges readily with the circulating G and subsequently undergoes metabolism (i.e., metabolism of all dissociated drug occurs in the central compartment). However, if some or all of the drug released from DcNPs in peripheral tissue is immediately metabolized to dFdU without exchanging with G in circulation, the fdiss.G→dFdU estimates from Eq. 2 would be expected to exceed the fdiss. max from Eq. 1 (i.e., dissociated drug is metabolized in both the central and peripheral compartments).
G AUC0→∞,CrEL is the plasma AUC of G given in free drug form. G AUC0→∞,DcNP is the total AUCs of associated and dissociated G given in DcNP form. dFdU AUC0→∞, CrEL is the AUC of dFdU formed after administration of free G. dFdU AUC0→∞,DcNP is the AUC of dFdU after dosing G in DcNP, which reflects the amount of dissociated G released from DcNPs and available for metabolic conversion. fdiss.G→dFdU represents the fraction of DcNP-dose that is released as free drug and available for conversion to dFdU by CDA.
The assumptions underlying Eq. 2 are as follows: [1] Dissociated (free) G, but not associated G, is readily available for metabolism by CDA. Dissociated G is rapidly and extensively metabolized to dFdU by CDA. […] A detailed pharmacokinetic model for the associated and dissociated species will be presented next to simulate the in vivo association of both drugs.

[2] = plasma concentration above which G tri-phosphate levels no longer increase; patients with leukemia; cited from earlier work
metastatic breast cancer = settings: cited from earlier work
[3] = Association efficiency of venetoclax and zanubrutinib with DcNP's by dialysis; assay type: physicochemical
Protocol: 85.4 mg DSPC, 33.6 mg DSPE-mPEG2000, 9.6 mg ABT-199, and 9.6 mg BGB-3111 were dissolved in 4 mL pre-warmed 70° C. tert-butyl alcohol. The solution was thoroughly mixed, lyophilized over 24 hrs, and reconstituted in 0.9% NaCl, 20 mM NaHCO3 buffer with trace TWEEN® 20. The resulting drug-combination, stabilized by lipid excipients and referred to as drug combination nanoparticle or DcNP's, were then filtered through an Acrodisc® CR syringe filter (0.2 μm PTFE Membrane, HPLC certified) and diluted with buffer solution to the desired concentration. Particle size was quantified using a NICOMP 380 ZLS (Zeta Potential/Particle Sizer). The extent of ABT-199 and BGB-3111 association with the DcNP particles in solution was analyzed via dialysis (6,000-8,000 molecular weight cutoff) under sink conditions; sink condition was achieved by dialyzing 200 μl of DcNP suspension against 200 mL buffer solution (1,000-fold volume change) for 4 hrs. The drug association efficiency (AE %) was determined by comparing the pre- and post-dialysis drug concentration ratios of each drug. Drug concentration was determined by the extraction drug in suspension and analyzed based on a LC-MS/MS assay as described below.
Following initial rehydration and without any sonication, particle size of the DcNP's with and without TWEEN20 was measured using the Zetasizer (FIG. 10). […] Without Tween20, DcNP size was primarily 39 nm in diameter (92%) with less than 8% of particles measuring 870 nm in diameter (FIG. 10). Particle size was determined via dynamic light scattering, and association efficiency (FIG. 11) is a normalized mass/mass ratio calculated by comparing amount of drug remaining associated with DcNP's compared to the overall amount of drug used to create the particles.

K-562 cells = test: AlamarBlue cell growth inhibition, K-562; assay type: cell-based; settings: Homo sapiens; for EC50: 120 h, K562 (Bcl-2 −, BTK +), 5 days, read-out: Inhibitory effects (EC50); for IC50: K562, 120 h, K-562, five days, read-out: IC50 (sensitivity)
Protocol: K-562 cells (human leukemia) were purchased from ATCC (Manassas, USA). Additional human leukemic cell lines, MOLT-4 and HL-60, were a generous gift from Carrie Cummings at Fred Hutchinson Cancer Research Center (Seattle, USA). All cells were cultured in Gibco RPMI medium 1640 with Gibco 1% 100×Antibiotic-Antimycotic (Thermo Fisher Scientific, Waltham, USA) and 10% fetal bovine serum. Cells were selected for their different protein expression levels of Bruton's Tyrosine Kinase (BTK) and B Cell Lymphoma 2 (Bcl-2); HL-60 cells express both BTK and Bcl-2, while K-562 and MOLT-4 cells only express BTK and Bcl-2, respectively.
Each cell line was seeded separately into Costar® Black 96-well Assay Plates (Corning USA). Within 1 hr, varying concentrations of individual free drug (ABT-199 or BGB-3111), a combination of both free drugs (w/w 1:1), or a combination of drugs within DcNP's were added to the cells. Following a 5-day incubation, growth of treated cells was compared to untreated cells, quantified using an AlamarBlue Cell Viability Assay (Thermo Fisher Scientific, Waltham, USA) with a PerkinElmer 1420 Multilabel Counter plate reader. Prism graphing software (GraphPad) was used to analyze the absorbance data and to assess relative cell growth.
The effects of DcNP formulation on the effectiveness of ABT-199 and BGB-3111 to inhibit cells that express Bcl-2 and BTK targets is shown in Table 6. Three immortalized human cell lines were selected based on their expression of Bcl-2 (B-cell lymphoma 2; target of venetoclax) and BTK (Bruton's tyrosine kinase; target of zanubrutinib). Cell lines were seeded in 96-well plates at 75,000 cells per well. In separate sets of wells, venetoclax and zanubrutinib were incubated with the cells for 5 days individually as free drug, together as free drug, and together as the drug combination nanoformulation. An AlamarBlue assay was performed to determine relative inhibition of cell growth due to drug presence.

EC50 (K-562 cells) [µg/mL] | IC50 (K-562 cells) [µg/mL] | Compound | fraction of dissociated G accessible for metabolism (fdiss.G→dFdU), Eq. 2 ([1]; GT DcNP IV) [%] | in vivo association to DcNPs per Eq. 1 ([1]; GT DcNP IV) [%] | maximum dissociated fraction (fdiss. max), Eq. 1 ([1]; GT DcNP IV) [%] | G in DcNP dosage form not accessible for dFdU conversion / remaining associated to DcNPs in vivo ([1]; after IV GT-DcNP administration, listed as G) | target concentration in plasma [2] [µg/mL] | Median survival (metastatic breast cancer; first-line treatment, combination versus paclitaxel only) [months] | response rate (metastatic breast cancer; gemcitabine 1250 mg/m^2 IV day 1, day 8 and paclitaxel 175 mg/m^2 IV combination compared to paclitaxel alone) [%] | AE % (association efficiency with the DcNP lipid platform) ([3]; with TWEEN20, day 1) [%] | AE % (association efficiency with the DcNP lipid platform) ([3]; with TWEEN20, day 70) [%] | AE % (association efficiency with the DcNP lipid platform) ([3]; without TWEEN20, day 1) [%] | AE % (association efficiency with the DcNP lipid platform) ([3]; without TWEEN20, day 70) [%]
 |  | Nc1ccn([C@@H]2O[C@H](CO)[C@@H](O)C2(F)F)c(=O)n1 [Gemcitabine, 4-amino-1-[(2R,4R,5R)-3,3-difluoro-4-hydroxy-5-(hydroxymethyl)oxolan-2-yl]pyrimidin-2-one] | 8 | > 98 | 1.6 | 92% and > 92% | 3 |  |  |  |  |  | 
 |  | CC(=O)O[C@H]1C(=O)[C@@]2(C)[C@H]([C@H](OC(=O)c3ccccc3)[C@]3(O)C[C@H](OC(=O)[C@H](O)[C@@H](NC(=O)c4ccccc4)c4ccccc4)C(C)=C1C3(C)C)[C@]1(OC(C)=O)CO[C@@H]1C[C@@H]2O [Paclitaxel, [(1S,2S,3R,4S,7R,9S,10S,12R,15S)-4,12-diacetyloxy-15-[(2R,3S)-3-benzamido-2-hydroxy-3-phenylpropanoyl]oxy-1,9-dihydroxy-10,14,17,17-tetramethyl-11-oxo-6-oxatetracyclo[11.3.1.0^3,10.0^4,7]heptadec-13-en-2-yl] benzoate] |  | > 75 | 26.6 |  |  | 15.8 | 26.2 |  |  |  | 
16 | 15.9 | CC1(C)CCC(CN2CCN(c3ccc(C(=O)NS(=O)(=O)c4ccc(NCC5CCOCC5)c([N+](=O)[O-])c4)c(Oc4cnc5[nH]ccc5c4)c3)CC2)=C(c2ccc(Cl)cc2)C1 [Venetoclax, 4-[4-[[2-(4-chlorophenyl)-4,4-dimethylcyclohexen-1-yl]methyl]piperazin-1-yl]-N-[3-nitro-4-(oxan-4-ylmethylamino)phenyl]sulfonyl-2-(1H-pyrrolo[2,3-b]pyridin-5-yloxy)benzamide] |  |  |  |  |  |  |  | 100 | 99.91 | 100 | 100
8.4 | 8.3 | C=CC(=O)N1CCC([C@@H]2CCNc3c(C(N)=O)c(-c4ccc(Oc5ccccc5)cc4)nn32)CC1 [Zanubrutinib, (7S)-2-(4-phenoxyphenyl)-7-(1-prop-2-enoylpiperidin-4-yl)-4,5,6,7-tetrahydropyrazolo[1,5-a]pyrimidine-3-carboxamide] |  |  |  |  |  |  |  | 98.52 | 93.05 | 99.99 | 95.50
